The source of these data is the Kinase Knowledgebase extract (Sharma et al. 2016).

pKi: −log10 of the molar value.

The target in this assay is PIK3CG (human) (UniProt P48736). Description: Inhibition of PIK3CG Kinase Activity.
Sequence of PIK3CG (human) (P48736 whole entry, looked up): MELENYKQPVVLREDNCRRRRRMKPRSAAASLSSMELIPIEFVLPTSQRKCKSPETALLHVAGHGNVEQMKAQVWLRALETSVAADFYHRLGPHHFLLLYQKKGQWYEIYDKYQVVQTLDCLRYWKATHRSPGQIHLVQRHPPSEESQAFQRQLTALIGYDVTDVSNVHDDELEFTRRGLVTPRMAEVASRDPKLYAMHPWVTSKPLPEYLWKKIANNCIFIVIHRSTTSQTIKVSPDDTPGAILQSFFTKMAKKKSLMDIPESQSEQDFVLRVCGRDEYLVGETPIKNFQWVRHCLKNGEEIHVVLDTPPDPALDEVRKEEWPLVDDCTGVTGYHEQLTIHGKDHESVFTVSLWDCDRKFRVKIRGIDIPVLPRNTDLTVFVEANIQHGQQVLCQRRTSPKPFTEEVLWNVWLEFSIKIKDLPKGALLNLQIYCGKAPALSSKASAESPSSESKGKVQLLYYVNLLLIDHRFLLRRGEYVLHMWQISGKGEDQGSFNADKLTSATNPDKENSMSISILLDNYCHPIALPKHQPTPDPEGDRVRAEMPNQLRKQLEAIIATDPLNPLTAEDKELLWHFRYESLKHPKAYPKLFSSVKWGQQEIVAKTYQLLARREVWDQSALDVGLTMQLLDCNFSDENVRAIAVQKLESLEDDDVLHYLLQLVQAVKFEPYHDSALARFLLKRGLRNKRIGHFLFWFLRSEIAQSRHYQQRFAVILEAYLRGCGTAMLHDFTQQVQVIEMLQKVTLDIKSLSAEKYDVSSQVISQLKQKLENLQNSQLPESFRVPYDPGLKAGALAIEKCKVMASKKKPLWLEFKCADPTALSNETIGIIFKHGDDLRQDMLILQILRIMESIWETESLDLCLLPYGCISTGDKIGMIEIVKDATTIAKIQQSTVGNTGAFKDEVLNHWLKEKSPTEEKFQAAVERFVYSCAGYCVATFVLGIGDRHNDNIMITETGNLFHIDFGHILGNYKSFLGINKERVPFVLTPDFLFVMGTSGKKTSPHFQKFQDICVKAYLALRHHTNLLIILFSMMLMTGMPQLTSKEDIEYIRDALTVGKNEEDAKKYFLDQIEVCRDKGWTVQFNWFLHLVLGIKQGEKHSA
In turn, `Cc1cc(-c2cncc(NC(=O)C(C)(C)C)c2)nc2c1C(=O)N(c1cnn(CC(F)(F)F)c1)C2(C)C` had a pKi of 6.31 to 7.00.

`COC1c2nc(-c3cncc(OCC(F)F)c3)cc(C)c2C(=O)N1c1cnn(CC(F)(F)F)c1` (stereo not given) gave a pKi greater than 7.00. For `COc1cc(-c2ccc3c(n2)[C@@H](C)N(c2cn[nH]c2)C3=O)cnc1OC` the value was greater than 7.00. For `COCCOc1cc(-c2cc(C)c3c(n2)CN(c2cnn(CC(F)(F)F)c2)C3=O)cnc1OC` the value was greater than 7.00; for `Cc1cc(-c2cncc(CO)c2)nc2c1C(=O)N(c1cc[nH]n1)C2`, 6.31 to 7.00; for `CCOc1cncc(-c2cc(C)c3c(n2)C(OC)N(c2cnn(CC(F)(F)F)c2)C3=O)c1` (stereo not given), greater than 7.00. As to `CCOc1cncc(-c2cc(C)c3c(n2)CN(c2cnn(CC(F)(F)F)c2)C3=O)c1`, the pKi was greater than 7.00. For `COc1cc(OC)c(-c2cc(C)c3c(c2)CN(c2cnn(CC(F)(F)F)c2)C3=O)cn1` the value was greater than 7.00. With `COc1cc(-c2ccc3c(n2)CN(c2cnn(C4CCCCC4O)c2)C3=O)cnc1OC` (stereo not given) the figure was 6.31 to 7.00; with `Cc1cc(-c2cncc(CO)c2)nc2c1C(=O)N(c1cnn(CC(F)(F)F)c1)C2`, greater than 7.00; with `CCOc1ncc(-c2ccc3c(n2)C(C)N(c2cnn(CC(F)(F)F)c2)C3=O)cc1OC` (stereo not given), greater than 7.00.

Turning to `Cc1cc(-c2cncc(NC(=O)C(C)C)c2)nc2c1C(=O)N(c1cnn(CC(F)(F)F)c1)C2(C)C`, the pKi was 6.31 to 7.00. With `COc1ncc(-c2cc(C)c3c(n2)C(C)(C)N(c2cnn(C(C)(C)C#N)c2)C3=O)cc1OCC(F)F` the figure was greater than 7.00. With `Cc1cc(-c2cncc(OC(F)F)c2)nc2c1C(=O)N(c1cn[nH]c1)[C@H]2C` the figure was greater than 7.00; with `CCO[C@@]1(C)c2nc(-c3cnc(OC)c(OC)c3)cc(C)c2C(=O)N1c1cnn(CC(F)(F)F)c1`, greater than 7.00.

Consider `Cc1cc(-c2cncc(OCC(F)F)c2)nc2c1C(=O)N(c1ccn([C@H]3CCOC3)n1)C2`, for which the pKi was greater than 7.00. With `Cc1cc(-c2cncc(OCC(F)(F)F)c2)cc2c1C(=O)N(c1cnn(CC(F)(F)F)c1)C2C` (stereo not given) the figure was greater than 7.00; with `CCc1cc(-c2cnc(OC)c(OC)c2)nc2c1C(=O)N(c1cnn(CC(F)(F)F)c1)C2`, greater than 7.00. As for `COc1cc(-c2ccc3c(n2)CN(c2cnn(CCN4CCC(C#N)CC4)c2)C3=O)cnc1OC`, the pKi is 6.31 to 7.00.

`COc1cc(-c2ccc3c(n2)CN(c2cccc(CC#N)c2)C3=O)cnc1OC` gave a pKi greater than 7.00. `Cc1cc(-c2cncc(C#N)c2)nc2c1C(=O)N(c1cnn(CC#N)c1)C2`: the negative logarithm of the Ki (pKi) was greater than 7.00. For `CCOc1cncc(-c2cc(C)c3c(n2)[C@]2(CCOC2)N(c2cnn(CC(F)(F)F)c2)C3=O)c1` the value was greater than 7.00; for `COc1cncc(-c2cc(C)c3c(n2)[C@@H](C)N(c2ccn(C[C@H](C)O)n2)C3=O)c1`, greater than 7.00; for `Cc1cc(-c2cncc(OC(F)F)c2)nc2c1C(=O)N(c1cnn(C[C@H](C)O)c1)C2`, greater than 7.00. For `COc1cc(-c2cc(OC)c3c(n2)CN(c2cnn(CC#N)c2)C3=O)cnc1OC` the value was greater than 7.00; for `COc1cncc(-c2cc(C)c3c(n2)C(OC)N(c2cnn(CC(F)(F)F)c2)C3=O)c1` (stereo not given), greater than 7.00; for `COc1ncc(-c2ccc3c(n2)CN(c2cnn(C(C)(C)C#N)c2)C3=O)cc1OC(F)F`, greater than 7.00. Regarding `CCOc1cncc(N2Cc3nc(-c4cnc(OC)c(OC)c4)cc(C)c3C2=O)c1`, the pKi is greater than 7.00. For `COc1cncc(-c2cc(C)c3c(n2)C2(CCOCC2)N(c2cnn(CC(F)(F)F)c2)C3=O)c1`, the pKi was greater than 7.00. For `CCOC1(C)c2nc(-c3cnc(OC)c(OC)c3)cc(C)c2C(=O)N1c1cnn(CC(F)(F)F)c1` (stereo not given) the value was greater than 7.00; for `COc1ncc(-c2ccc3c(n2)CN(c2cnn(CC(F)(F)F)c2)C3=O)cc1OC(F)F`, greater than 7.00; for `COc1ncc(-c2cc(C)c3c(n2)CN(c2cnn(C(C)(C)C#N)c2)C3=O)cc1OCC(F)(F)F`, greater than 7.00. `CCOc1ncc(-c2cc(C)c3c(n2)CN(c2cnn(CC)c2)C3=O)cc1OC` had a pKi greater than 7.00.

The compound `CSc1cncc(-c2cc(C)c3c(n2)CN(c2cnn(CC(F)(F)F)c2)C3=O)c1` gave a pKi greater than 7.00.

Turning to `COc1cncc(-c2cc(C)c3c(n2)CN(c2cnn(CC(F)F)c2)C3=O)c1`, the negative-log Ki (pKi) is greater than 7.00. For `COc1cncc(-c2cc(C)c3c(n2)C(C)N(c2cc[nH]n2)C3=O)c1` (stereo not given) the value was greater than 7.00; for `COc1cncc(-c2cc(C)c3c(n2)[C@H](C)N(c2cnn(CC(F)(F)F)c2)C3=O)c1`, greater than 7.00; for `COc1cncc(-c2cc(C)c3c(n2)C(C)N(c2cn(C)cn2)C3=O)c1` (stereo not given), greater than 7.00. For `COc1cncc(-c2cc(C)c3c(n2)C2(CCCO2)N(c2cnn(CC(F)(F)F)c2)C3=O)c1` (stereo not given) the value was greater than 7.00. Compound `Cc1cc(-c2cncc(OC(F)F)c2)nc2c1C(=O)N(c1cc[nH]n1)C2` showed a pKi greater than 7.00. For `COc1cc(-c2ccc3c(n2)C(O)N(c2cnn(CC(F)(F)F)c2)C3=O)cnc1OC` (stereo not given) the value was greater than 7.00; for `COc1cc(-c2ccc3c(n2)[C@H](C)N(c2cnn(CC#N)c2)C3=O)cnc1OC`, greater than 7.00. For `COc1cc(-c2ccc3c(c2)CN(c2cc(C4CC4)[nH]n2)C3=O)cnc1OC` the value was greater than 7.00; for `COc1cc(-c2ccc3c(n2)[C@@H](OC)N(c2cnn(CC(F)(F)F)c2)C3=O)cnc1OC`, greater than 7.00; for `CNC(=O)c1cncc(-c2cc(C)c3c(n2)C(C)(C)N(c2cnn(CC(F)(F)F)c2)C3=O)c1`, greater than 7.00. In turn, `CCCOC1c2nc(-c3cnc(OC)c(OC)c3)cc(C)c2C(=O)N1c1cnn(CC(F)(F)F)c1` (stereo not given) gave a pKi greater than 7.00. With `COCCOc1ncc(-c2ccc3c(n2)CN(c2cnn(CC#N)c2)C3=O)cc1OC` the figure was greater than 7.00; with `COCCn1cc(N2Cc3nc(-c4cnc(OC)c(OC)c4)ccc3C2=O)cn1`, greater than 7.00; with `Cc1cc(-c2cncc(C(=O)N(C)C(C)CO)c2)nc2c1C(=O)N(c1cnn(CC(F)(F)F)c1)C2` (stereo not given), 6.31 to 7.00. On to `Cc1cc(-c2cncc(OCC(F)F)c2)nc2c1C(=O)N(c1cnn(CC(F)(F)F)c1)[C@@H]2C`, for which the pKi is greater than 7.00.

On to `COc1cncc(-c2cc(C)c3c(n2)CN(c2ccn(C)n2)C3=O)c1`, for which the pKi is greater than 7.00.

`COc1ncc(-c2cc(C)c3c(n2)C(C)(C)N(c2cnn(CC(F)(F)F)c2)C3=O)cc1C(=O)N[C@H]1CCOC1` gave a pKi greater than 7.00. With `CCOc1ncc(-c2cc(C)c3c(n2)C(OC(C)C)N(c2cnn(CC(F)(F)F)c2)C3=O)cc1OC` (stereo not given) the figure was greater than 7.00. The compound `COc1cc(-c2ccc3c(n2)CN(c2ccc(N(C)CCC4OCCO4)nc2)C3=O)cnc1OC` had a pKi of 6.31 to 7.00. With `CCn1ccc(N2Cc3nc(-c4cnc(OC)c(OC(C)C)c4)cc(C)c3C2=O)n1` the figure was greater than 7.00; with `CCn1cc(N2Cc3nc(-c4cncc(OC(F)F)c4)cc(C)c3C2=O)cn1`, greater than 7.00; with `COc1cncc(-c2cc(C)c3c(n2)C(C)(OC)N(c2cnn(CC(F)(F)F)c2)C3=O)c1` (stereo not given), greater than 7.00. For `CCn1ccc(N2C(=O)c3c(C)cc(-c4cncc(OC)c4)nc3[C@H]2C)n1` the value was greater than 7.00; for `COc1cncc(-c2cc(C)c3c(n2)CN(c2cnn(CC#N)c2)C3=O)c1`, greater than 7.00. With `Cc1cc(-c2cncc(S(C)(=O)=O)c2)nc2c1C(=O)N(c1cnn(CC(F)(F)F)c1)C2C` (stereo not given) the figure was greater than 7.00.

In general, pKi refers to the Ki on a negative log10 scale, so that one unit is a factor of ten. A high value points to a low Ki.
